Laboratory results reported in patent publication US9102630B2, “Crystals of salts of phenylalanine derivatives” (AJINOMOTO CO., INC., priority 2010, dated 2015).
Converted amounts (≈) assume the structure as drawn.

Key:
Assay type in all cases: physicochemical
[1] = Determination of solubility in water (HPLC of supernatant); conditions: 25° C., 15 min, 50 mg suspended in 10 mL distilled water
Description: After 50 mg each of samples of the crystals prepared according to the foregoing methods and the crystal of the compound (I) in its free state was suspended in 10 mL of distilled water and then each suspension was stirred at room temperature for 15 minutes, the supernatant of each suspension was collected, then passed through a disposable filter of 0.2 μm for HPLC, 1 to 3.5 g of each filtered supernatant was dispensed, the volume thereof was increased up to 10 mL with a 90% aqueous solution of acetonitrile and finally the content of the compound (I) present in the supernatant was determined according to the HPLC while using the following conditions.
(Conditions for the HPLC Analysis)
(§1) Device Used: LC-10A Series (available from Shimadzu Corporation);
(§2) Column: Inertsil (available from GL Science Company) ODS-24.5 mm×150 mm, 5 μm, 40° C.;
(§3) Flow Rate: 1 mL/min, UV at 254 nm, 10 μL Injection;
(§4) Eluting Solution A: 0.1% TFA (trifluoroacetic acid)/water;
(§5) Eluting Solution B: 0.1% TFA/MeCN;
(§6) Gradient Program: 0→25 min (B: 0→90%).

[2] = Determination of storage stability (accelerated test, HPLC); conditions: 40° C., 75% RH, 2M (two months)
Description: The crystal of a salt of the compound represented by the formula (I) was inspected for the storage stability, when it was stored at 40° C., 75% RH over two months, according to the following method. The results observed for preferred crystals, i.e., forms Cl1, Br1, Br2, Ms1 and Ms3 crystals, among others, are summarized in the following Table 2. The data listed in Table 2 indicate that the crystals of the compound (I) in their preferred crystalline forms according to the present invention are particularly excellent in their storage stability.
The storage stability of each sample, which had been stored in a depository at 40° C., 75% RH over two months, was determined according to the HPLC analysis method.
More specifically, about 25 mg each of the crystals of the compound represented by the formula (I) was dispensed into a 50 mL volume measuring flask and then dissolved in a 90% aqueous solution of acetonitrile containing 0.1% TFA and the storage stability of the resulting solution was determined by the HPLC analysis under the following conditions.
(Conditions for HPLC Analysis)
as §1, §2, §3, §4, §5, §6

[3] = Determination of adsorption-desorption of water vapor; conditions: isothermal water vapor adsorption-desorption, 25° C.
Description: The crystals of the present invention were inspected for their water vapor adsorption-desorption ability using BELLSORP-aqua3 available from Nippon Bell Co., Ltd. More specifically, about 300 mg of the compound represented by the formula (I) was dispensed into a measuring tube, dried at 50° C. for 30 minutes and the amount of water vapor adsorbed on or desorbed from the crystal was determined under the following conditions:
Adsorption Temperature: 25° C.; Equilibration Time: 500 sec; Saturated Vapor Pressure: 3.169 kPa;
Excessively Introduced Amount: 0.2 or 1.0 cm^3 (STP)/g; Tolerance for Increase or Decrease of Adsorbed Amount: 0.2 or 1.0 cm^3 (STP)/g.

COC(=O)[C@H](Cc1ccc(-n2c(=O)c3cc(N(C)C)ccc3n(C)c2=O)cc1)NC(=O)c1c(Cl)cccc1Cl [Form Cl2]
Solubility in Water ([1]; listed as Hydrochloride (Form Cl2)): 101 µg/mL (≈ 177 µM)

COC(=O)[C@H](Cc1ccc(-n2c(=O)c3cc(N(C)C)ccc3n(C)c2=O)cc1)NC(=O)c1c(Cl)cccc1Cl [Form Ms1]
Solubility in Water ([1]; listed as Methane-sulfonate (Form Ms1)): 102 µg/mL (≈ 179 µM) | Accelerated Test, Stability: initial sample still in existence [2]: 99.06% of the initial sample was still in existence. | change in crystalline state at a high humidity [3]: only a very slight change in its crystalline state

COC(=O)[C@H](Cc1ccc(-n2c(=O)c3cc(N(C)C)ccc3n(C)c2=O)cc1)NC(=O)c1c(Cl)cccc1Cl [Form Ms3]
Solubility in Water ([1]; listed as Methane-sulfonate (Form Ms3)): 109 µg/mL (≈ 191 µM) | Accelerated Test, Stability: initial sample still in existence [2]: 97.41% of the initial sample was still in existence and

COC(=O)[C@H](Cc1ccc(-n2c(=O)c3cc(N(C)C)ccc3n(C)c2=O)cc1)NC(=O)c1c(Cl)cccc1Cl [Form Ms2]
Solubility in Water ([1]; listed as Methane-sulfonate (Form Ms2)): 115 µg/mL (≈ 202 µM)

COC(=O)[C@H](Cc1ccc(-n2c(=O)c3cc(N(C)C)ccc3n(C)c2=O)cc1)NC(=O)c1c(Cl)cccc1Cl [Form Br1]
Solubility in Water ([1]; listed as HBr salt (Form Br1)): 120 µg/mL | Accelerated Test, Stability: initial sample still in existence [2]: 99.05% of the initial sample was still in existence.

COC(=O)[C@H](Cc1ccc(-n2c(=O)c3cc(N(C)C)ccc3n(C)c2=O)cc1)NC(=O)c1c(Cl)cccc1Cl [Free State]
Solubility in Water [1]: 0.12 µg/mL (≈ 0.211 µM)

COC(=O)[C@H](Cc1ccc(-n2c(=O)c3cc(N(C)C)ccc3n(C)c2=O)cc1)NC(=O)c1c(Cl)cccc1Cl [Form Ts1]
Solubility in Water ([1]; listed as Toluene-sulfonate (Form Ts1)): 97 µg/mL (≈ 170 µM)

COC(=O)[C@H](Cc1ccc(-n2c(=O)c3cc(N(C)C)ccc3n(C)c2=O)cc1)NC(=O)c1c(Cl)cccc1Cl [Form Cl3]
Solubility in Water ([1]; listed as Hydrochloride (Form Cl3)): 102 µg/mL (≈ 179 µM)

COC(=O)[C@H](Cc1ccc(-n2c(=O)c3cc(N(C)C)ccc3n(C)c2=O)cc1)NC(=O)c1c(Cl)cccc1Cl [Form Cl5]
Solubility in Water ([1]; listed as Hydrochloride (Form Cl5)): 91 µg/mL (≈ 160 µM)

COC(=O)[C@H](Cc1ccc(-n2c(=O)c3cc(N(C)C)ccc3n(C)c2=O)cc1)NC(=O)c1c(Cl)cccc1Cl [Form S1]
Solubility in Water ([1]; listed as Sulfate (Form S1)): 104 µg/mL (≈ 183 µM)

COC(=O)[C@H](Cc1ccc(-n2c(=O)c3cc(N(C)C)ccc3n(C)c2=O)cc1)NC(=O)c1c(Cl)cccc1Cl [Form N1]
Solubility in Water ([1]; listed as Nitrate (Form N1)): 110 µg/mL (≈ 193 µM)

COC(=O)[C@H](Cc1ccc(-n2c(=O)c3cc(N(C)C)ccc3n(C)c2=O)cc1)NC(=O)c1c(Cl)cccc1Cl [Form N2]
Solubility in Water ([1]; listed as Nitrate (Form N2)): 128 µg/mL (≈ 225 µM)

COC(=O)[C@H](Cc1ccc(-n2c(=O)c3cc(N(C)C)ccc3n(C)c2=O)cc1)NC(=O)c1c(Cl)cccc1Cl [Form Br2]
Solubility in Water ([1]; listed as HBr salt (Form Br2)): 123 µg/mL | Accelerated Test, Stability: initial sample still in existence [2]: 98.13% of the initial sample was still in existence and | change in crystalline state at a high humidity [3]: only a very slight change in its crystalline state

COC(=O)[C@H](Cc1ccc(-n2c(=O)c3cc(N(C)C)ccc3n(C)c2=O)cc1)NC(=O)c1c(Cl)cccc1Cl [Form Cl1]
Solubility in Water ([1]; listed as Hydrochloride (Form Cl1)): 122 µg/mL (≈ 214 µM) | Accelerated Test, Stability: initial sample still in existence [2]: 99.03% of the initial sample was still in existence. | change in crystalline state at a high humidity [3]: only a very slight change in its crystalline state

COC(=O)[C@H](Cc1ccc(-n2c(=O)c3cc(N(C)C)ccc3n(C)c2=O)cc1)NC(=O)c1c(Cl)cccc1Cl [Form Ms4]
Solubility in Water ([1]; listed as Methane-sulfonate (Form Ms4)): 94 µg/mL (≈ 165 µM)

COC(=O)[C@H](Cc1ccc(-n2c(=O)c3cc(N(C)C)ccc3n(C)c2=O)cc1)NC(=O)c1c(Cl)cccc1Cl [Form S2]
Solubility in Water ([1]; listed as Sulfate (Form S2)): 129 µg/mL (≈ 227 µM)

COC(=O)[C@H](Cc1ccc(-n2c(=O)c3cc(N(C)C)ccc3n(C)c2=O)cc1)NC(=O)c1c(Cl)cccc1Cl [Form S3]
Solubility in Water ([1]; listed as Sulfate (Form S3)): 119 µg/mL (≈ 209 µM)
